Assay results taken from patent US20110269825A1, “Modified Thromboxane A2 Receptor Promoter Sequence” (priority 2008, published 2011).

Columns and labels:
[1] = tested on: Prm1-directed luciferase expression; test: Effect of PMA, PD98059 or Vitamin D3 on Prm1-directed luciferase expression in HEL cells; assay type: cell-based, human
Method: HEL and EA.hy 926 cells were co-transfected with the various pGL3Basic-recombinant plasmids (2 mg), encoding firefly luciferase, along with pRL-TK (200 ng), encoding renilla luciferase, using DMRIE-C® transfection reagent. HEK293, WI-38, and 1° hAoSMCs were co-transfected with the pGL3Basic-recombinant plasmids (2 mg), along with pRL-TK (200 ng), using Effectene transfection reagent. In all cases, cells co-transfected with pRL-TK (200 ng) in the presence of either the pGL3Control vector (firefly luciferase gene under the control of the SV40 promoter; 2 mg) or the promoter-less pGL3Basic empty vector (2 mg), which served as positive and negative controls, respectively. […] Relative firefly to renilla luciferase activity (arbitrary units) was calculated as a ratio and was expressed in relative luciferase units (RLU). To investigate the effect of over-expression of exon 5 (+ or −) or KTS (+ or −) isoforms of WT1 on Prm1-directed gene expression, HEL cells were co-transfected with either pGL3b:Prm1 or pGL3b:Prm1D (1.5 μg) plus 200 ng of pRL-TK along with either pcDNA3:WT1 (+/+), pcDNA3:WT1 (+/−), pcDNA3:WT1 (−/+), pcDNA3:WT1 (−/−) (0.5 μg), or as a control, pcDNA3 (0.5 μg). […] The plasmid pCMV5-NAB1, containing the entire coding sequence for NAB1, was generously donated by Dr. Gerald Thiel, University of Saarland Medical Center, Homburg, Germany, and has been described previously (Thiel et al., 2000). To investigate the effect of over-expression of NAB1 on the PMA-mediated induction of Prm1-directed gene expression, HEL cells were transiently co-transfected with pGL3b:Prm1 (2 μg) plus pRL-TK (200 ng) along with either pCMV5 (control) or pCMV:NAB1 (1 μg).

[2] = tested on: human tissue factor (hTF); test: Immunoblot analysis of promoter-driven human tissue factor expression in HEL cells; assay type: cell-based; conditions: 48 h post-transfection, compared with CMV promoter (pcDNA3.1(−):hTF) and pcDNA3.1(−)
Method: The expression of WT1, Sp1, Egr1, NF-E2, GATA-1 and Ets-1 proteins in HEL cells was confirmed by western blot analysis. Briefly, whole cell protein was resolved by SDS-PAGE (10% acrylamide gels) and transferred to polyvinylidene difluoride (PVDF) membrane according to standard methodology. Membranes were screened using anti-WT1, anti-NF-E2, anti-Sp1, anti-Egr1, anti-GATA-1 or anti-Ets-1 sera in 5% non fat dried milk in 1×TBS (0.01 M Tris/HCl, 0.1 M NaCl) for 2 h at room temperature followed by washing and screening using goat anti-rabbit horseradish peroxidase (sc-2204) followed by chemiluminescence detection, as described by the supplier (Roche Applied Science). For PMA studies, HEL cells were pre-incubated for the indicated amount of time with 100 nM PMA, with 10 μM PD98059, with 100 nM PMA plus 10 μM PD98059 or, as a control, with vehicle [0.1% (v/v) DMSO]. Whole cell protein (60 μg per lane) was resolved by SDS-PAGE (10% acrylamide gels) and transferred to polyvinylidene difluoride (PVDF) membrane according to standard methodology. […] Cells were harvested 48 hr post-transfection and aliquots ([…]) were analysed by SDS-PAGE/western blot analysis. As a positive control for hTF expression, […] of a commercial control Tissue-Factor Biomass was also analysed. […]

[3] = tested on: EA.hy 926 (human endothelial) cells; test: Dual luciferase genetic reporter assay in EA.hy 926 cells; assay type: cell-based
Method: (§1) HEL and EA.hy 926 cells were co-transfected with the various pGL3Basic-recombinant plasmids (2 mg), encoding firefly luciferase, along with pRL-TK (200 ng), encoding renilla luciferase, using DMRIE-C® transfection reagent. HEK293, WI-38, and 1° hAoSMCs were co-transfected with the pGL3Basic-recombinant plasmids (2 mg), along with pRL-TK (200 ng), using Effectene transfection reagent. In all cases, cells co-transfected with pRL-TK (200 ng) in the presence of either the pGL3Control vector (firefly luciferase gene under the control of the SV40 promoter; 2 mg) or the promoter-less pGL3Basic empty vector (2 mg), which served as positive and negative controls, respectively. Firefly and renilla luciferase expression was assayed some 48 h post-transfection using the Dual-Luciferase Reporter Assay System™, as described (Coyle et al., 2005). Relative firefly to renilla luciferase activity (arbitrary units) was calculated as a ratio and was expressed in relative luciferase units (RLU). To investigate the effect of over-expression of exon 5 (+ or −) or KTS (+ or −) isoforms of WT1 on Prm1-directed gene expression, HEL cells were co-transfected with either pGL3b:Prm1 or pGL3b:Prm1D (1.5 μg) plus 200 ng of pRL-TK along with either pcDNA3:WT1 (+/+), pcDNA3:WT1 (+/−), pcDNA3:WT1 (−/+), pcDNA3:WT1 (−/−) (0.5 μg), or as a control, pcDNA3 (0.5 μg). Cells were harvested 48 h post-transfection and assayed for luciferase activity, as above, or subjected to western blot or RT-PCR analysis. The plasmids pcDNA3:WT1 (+/+), pcDNA3:WT1 (+/−), pcDNA3:WT1 (−/+) and pcDNA3:WT1 (−/−) were generously donated by Dr. Charles T. Roberts JR, Oregon National Primate Research Center, Oregon, USA and have been previously described (Tajinda et al., 1999). For PMA studies, approximately 32 h post-transfection, the medium was supplemented with PMA (100 nM), with PMA (100 nM) and PD98059 (10 μM) or, as a control, with vehicle [0.1% (v/v) DMSO]. After 16 h, cells were assayed for firefly and renilla luciferase using the Dual-Luciferase Reporter Assay System™ as previously described (Coyle et al., 2005). […]

[4] = tested on: WI-38 (human lung fibroblast) cells; test: Dual luciferase genetic reporter assay in WI-38 cells; assay type: cell-based
Method: as §1

[5] = tested on: 1° hAoSMC (primary human aortic smooth muscle) cells; test: Dual luciferase genetic reporter assay in 1° hAoSMC; assay type: cell-based; conditions: for Mean firefly relative to renilla luciferase activity: co-transfected with pRL-TK
Method: as §1

[6] = tested on: HEK (Human embryonic kidney) 293 cells; test: Dual luciferase genetic reporter assay in HEK 293 cells; assay type: cell-based
Method: as §1

HEL 92.1.7 cells = test: Dual luciferase genetic reporter assay of promoter-directed luciferase expression in HEL cells; assay type: cell-based, human
Method: HEL and EA.hy 926 cells were co-transfected with the various pGL3Basic-recombinant plasmids (2 mg), encoding firefly luciferase, along with pRL-TK (200 ng), encoding renilla luciferase, using DMRIE-C® transfection reagent. HEK293, WI-38, and 1° hAoSMCs were co-transfected with the pGL3Basic-recombinant plasmids (2 mg), along with pRL-TK (200 ng), using Effectene transfection reagent. In all cases, cells co-transfected with pRL-TK (200 ng) in the presence of either the pGL3Control vector (firefly luciferase gene under the control of the SV40 promoter; 2 mg) or the promoter-less pGL3Basic empty vector (2 mg), which served as positive and negative controls, respectively. Firefly and renilla luciferase expression was assayed some 48 h post-transfection using the Dual-Luciferase Reporter Assay System™, as described (Coyle et al., 2005). Relative firefly to renilla luciferase activity (arbitrary units) was calculated as a ratio and was expressed in relative luciferase units (RLU). To investigate the effect of over-expression of exon 5 (+ or −) or KTS (+ or −) isoforms of WT1 on Prm1-directed gene expression, HEL cells were co-transfected with either pGL3b:Prm1 or pGL3b:Prm1D (1.5 μg) plus 200 ng of pRL-TK along with either pcDNA3:WT1 (+/+), pcDNA3:WT1 (+/−), pcDNA3:WT1 (−/+), pcDNA3:WT1 (−/−) (0.5 μg), or as a control, pcDNA3 (0.5 μg). Cells were harvested 48 h post-transfection and assayed for luciferase activity, as above, or subjected to western blot or RT-PCR analysis. The plasmids pcDNA3:WT1 (+/+), pcDNA3:WT1 (+/−), pcDNA3:WT1 (−/+) and pcDNA3:WT1 (−/−) were generously donated by Dr. Charles T. Roberts JR, Oregon National Primate Research Center, Oregon, USA and have been previously described (Tajinda et al., 1999). For PMA studies, approximately 32 h post-transfection, the medium was supplemented with PMA (100 nM), with PMA (100 nM) and PD98059 (10 μM) or, as a control, with vehicle [0.1% (v/v) DMSO]. After 16 h, cells were assayed for firefly and renilla luciferase using the Dual-Luciferase Reporter Assay System™ as previously described (Coyle et al., 2005). The plasmid pCMV5-NAB1, containing the entire coding sequence for NAB1, was generously donated by Dr. Gerald Thiel, University of Saarland Medical Center, Homburg, Germany, and has been described previously (Thiel et al., 2000). To investigate the effect of over-expression of NAB1 on the PMA-mediated induction of Prm1-directed gene expression, HEL cells were transiently co-transfected with pGL3b:Prm1 (2 μg) plus pRL-TK (200 ng) along with either pCMV5 (control) or pCMV:NAB1 (1 μg). Cells were harvested 48 h post-transfection and assayed for luciferase activity, as above.

Row | Compound | Effect on luciferase expression directed by Prm1K ([1]; 80 nM Vitamin D3, 24 h or 30 h) | Increase in Prm1-directed luciferase expression ([1]; 80 nM Vitamin D3, 30 h) | Level of human tissue factor expression driven by the promoter [2] | Ratio of luciferase expression relative to that directed by pGL3Control ([3]; EA.hy 926) | Statistical significance of luciferase expression vs Prm1 ([3]; EA.hy 926, ↑ = increase) | Mean firefly relative to renilla luciferase activity ([3]; EA.hy 926 cells, co-transfected with pRL-TK) | Ratio of luciferase expression relative to that directed by pGL3Control ([4]; WI-38) | Statistical significance of luciferase expression vs Prm1 ([4]; WI-38, ↑ = increase) | Mean firefly relative to renilla luciferase activity ([4]; WI-38 cells, co-transfected with pRL-TK) | Ratio of luciferase expression relative to that directed by pGL3Control [5] | Mean firefly relative to renilla luciferase activity [5] | Mean firefly relative to renilla luciferase activity ([5]; listed as pGL3BPrm1GC-8146) | Ratio of luciferase expression relative to that directed by pGL3Control ([6]; HEK) | Statistical significance of luciferase expression vs Prm1 ([6]; HEK 293, ↑ = increase) | Mean firefly relative to renilla luciferase activity ([6]; HEK 293 cells, co-transfected with pRL-TK) | Ratio of luciferase expression relative to that directed by pGL3Control (HEL 92.1.7 cells; HEL) | Mean firefly relative to renilla luciferase activity (HEL 92.1.7 cells; HEL cells, co-transfected with pRL-TK, 48 h post-transfection) | Increase in luciferase activity relative to Prm1 (−8500) (HEL 92.1.7 cells; HEL, 5′ deletion or site-directed mutation of Prm1) | Luciferase expression compared with another construct, in words (HEL 92.1.7 cells; HEL, comparator as named in the words or parent fragment)
1 | C=C1/C(=C\C=C2/CCC[C@]3(C)[C@@H]([C@H](C)CCCC(C)(C)O)CC[C@@H]23)C[C@@H](O)C[C@@H]1O [Vitamin D3, 1α, 25-dihydroxy-vitamin D3] | no significant effect on luciferase expression directed by Prm1K | 1.6 fold |  |  |  |  |  |  |  |  |  |  |  |  |  |  |  |  | 
2 | Prm1^GC*^(−8146): Prm1 with GC element at −8146 mutated (SEQ ID NO:13) (DNA CGGGGGTCGTGGGGTGGATGGCGGGCCAA; expressed or natural sequence; listed as Homo sapiens) |  |  | significantly greater | 0.06 | ns | 3.11 RLU | 0.51 | ns | 59.01 RLU | 1.18 | 82.67 RLU | 82.668 RLU | 0.69 | ns | 6.9 RLU | 2.65 | 21.5 RLU | 2.5 fold | significantly stronger promoters
